Laboratory results published in patent US7169567B1, “Screening assay utilizing the PTH receptor” (The General Hospital Corporation, priority 1998, dated 2007).
Where no end group is shown, it is not given here.

Assays:
rat secretin receptor = target: T1, rat secretin receptor (Rattus norvegicus, UniProt P23811); assay: cAMP response in COS-7 cells transfected with the rat secretin receptor; assay type: cell-based; conditions: PTH(1–14) 100 mM
T1 construct: expressed in transfected cells; host or cells: COS-7, transient
T1 sequence (P23811 26-449): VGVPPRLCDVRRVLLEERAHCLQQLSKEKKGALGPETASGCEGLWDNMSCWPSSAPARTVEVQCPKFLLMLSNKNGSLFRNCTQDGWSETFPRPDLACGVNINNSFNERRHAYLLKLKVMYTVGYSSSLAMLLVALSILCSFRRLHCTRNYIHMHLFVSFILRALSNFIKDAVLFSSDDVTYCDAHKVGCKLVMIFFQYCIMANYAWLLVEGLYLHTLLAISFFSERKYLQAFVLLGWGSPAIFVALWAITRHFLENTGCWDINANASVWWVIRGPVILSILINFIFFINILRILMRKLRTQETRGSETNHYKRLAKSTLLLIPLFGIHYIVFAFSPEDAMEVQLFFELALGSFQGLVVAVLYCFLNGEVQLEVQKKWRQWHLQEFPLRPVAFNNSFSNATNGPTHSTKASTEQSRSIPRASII
Experimental: FIG. 6. Specificity of the Truncated Ligand and PTH Receptor. COS-7 cells transiently transfected with either rWT-HA (A), rΔNt (B), or the intact rat secretin receptor (C), were treated with the indicated peptides for 60 min at 22° C., and the resulting intracellular cAMP levels were quantified by RIA. […] 1 mM and secretin(1–13), 100 mM. Shown are data (mean±s.e.m.) from one experiment performed in duplicate, and this was repeated twice more with equivalent results.
(§1) Intracellular cyclic AMP: Transfected COS-7 or HKRK-B7 cells were rinsed with 500 ml of binding buffer, (50 mM Tris-HCl, pH 7.7, 100 mM NaCl, 5 mM KCl, 2 mM CaC12, 5% heat-inactivated horse serum, 0.5% heat-inactivated fetal bovine serum) and 200 ml of IBMX buffer (DMEM containing 2 mM IBMX, 1 mg/ml bovine serum albumin, 35 mM Hepes-NaOH, pH 7.4) and […] of binding buffer or binding buffer containing various amounts of peptide were added. The plates were incubated for 60 minutes at room temperature. The buffer was then withdrawn and the cells were frozen on dry ice, treated with 0.5 ml of 50 mM HCl, and refrozen. After the thawing, the lysate was diluted 30-fold in dH20 and an aliquot was analyzed for cAMP content by determined radioimmunoassay using unlabeled cAMP as a standard.
In order to test whether PTH(1–14) and rΔNt retained the appropriate recognition specificity for the corresponding parent ligand, cross-reactivity experiments were done using secretin ligands and the cloned rat secretin receptor. […] Cells expressing rΔNt responded to PTH(1–34) and PTH(1–14) but not to secretin(1–27) (1 mM) or secretin(1–13) ([…]) (FIG. 5B). Thus, the recognition specificity of PTH(1–14) and rΔNt appear to replicate that of the intact parent molecules. No evidence for relaxed specificity was detected in these studies (FIG. 6).

human PTH-1 receptor = target: T2, human PTH-1 receptor (Homo sapiens, UniProt Q03431); assay: cAMP-stimulating activity in HKRK-B7 cells (LLC-PK1 stably transfected with human PTH-1 receptor), RIA; assay type: cell-based; set-up: maximum cAMP response: dose or concentration left out as unconfirmed; conditions: for increase in intracellular cAMP levels relative to the basal cAMP level: 60 min at 22° C.
T2 construct: expressed in transfected cells; host or cells: HKRK-B7 (LLC-PK1 stably transfected, pCDNA-1-based plasmid)
T2 sequence (Q03431 27-593): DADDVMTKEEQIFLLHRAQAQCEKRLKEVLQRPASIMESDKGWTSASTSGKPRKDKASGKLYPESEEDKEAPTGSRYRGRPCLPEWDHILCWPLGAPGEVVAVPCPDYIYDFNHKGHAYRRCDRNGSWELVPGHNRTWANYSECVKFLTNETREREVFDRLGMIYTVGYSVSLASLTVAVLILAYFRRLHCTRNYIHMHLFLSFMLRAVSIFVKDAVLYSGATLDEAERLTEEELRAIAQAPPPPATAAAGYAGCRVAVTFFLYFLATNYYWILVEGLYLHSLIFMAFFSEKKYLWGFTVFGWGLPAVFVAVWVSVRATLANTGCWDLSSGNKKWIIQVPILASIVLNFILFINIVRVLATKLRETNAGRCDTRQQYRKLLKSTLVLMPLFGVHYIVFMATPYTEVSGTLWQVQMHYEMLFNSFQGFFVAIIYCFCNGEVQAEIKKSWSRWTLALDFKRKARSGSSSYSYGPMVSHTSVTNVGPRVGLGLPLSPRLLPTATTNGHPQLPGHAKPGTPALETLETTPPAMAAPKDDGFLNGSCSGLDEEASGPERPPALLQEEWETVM
Experimental: FIG. 2. cAMP-stimulating Activity of PTH Fragments in LLC-PK1 Cells. A) Rat PTH(1–34) analog or amino-terminal rPTH fragments were tested for cAMP-stimulating activity in an LLC-P1-derived cell line (HKRK-B7) stably transfected with the human PTH-1 receptor. Cells were treated with peptide at the indicated doses for 60 min at 22° C. Intracellular cAMP was measured by RIA, as described in Experimental Procedures. Shown are combined data (mean±s.e.m.) from 3 separate experiments, each performed in duplicate. B) HKRK-B7 cells, or untransfected LLC-PK1 were treated with rPTH(1–34) or rPTH(1–14), and intracellular cAMP was measured. Shown are data (mean±s.e.m.) from a single representative experiment performed in duplicate.
FIG. 3. Alanine-scan of PTH(1–14). HKRK-B7 cells were treated with 100 mM of one of 14 different rPTH(1–14) analogs, each having a different alanine-substitution at the indicated amino acid position. The resulting cAMP levels were determined as described in Experimental Procedures. Shown are the combined data (mean±s.e.m.) from three separate experiments, each performed in duplicate. The mean (mean±s.e.m.) basal cAMP levels observed in the three experiments was 2.1±0.1 pmole/well, and the maximum response to rPTH(1–34) at 0.1 mM was 254±16 pmole/well.
Cell Culture and DNA Transfection: COS-7 and HKRK-B7 cells were cultured at 37° C. in Dulbecco's modified Eagle's medium (DMEM) supplemented with fetal bovine serum (10%); penicillin G (20 units/ml), streptomycin sulfate (20 μg/ml) and amphotericin B (0.05 μg/ml) in a humidified atmosphere containing 5% CO2. Twenty-four to 16 hours prior to assay, cells in 24-well plates were shifted to a humidified incubator containing 5% CO2 that was set at 33° C. Stock solutions of EGTA/trypsin and antibiotics were from GIBCO; fetal bovine serum was from Hyclone Laboratories (Logan, Utah). Derivation and characterization of the HKRK-B7 cell line by stable transfection of LLC-PK1 cells with a pCDNA-1-based plasmid (In Vitrogen, San Diego, Calif.) encoding the hPTH-1 receptor was described previously (Takasu, H. and Bringhurst, F., Endocrinology, in press (1998)). These cells express PTH-1 receptors at a surface density of about 1×10^6 PTH-binding sites per cell. The HKRK-B7 cells were used for functional assays 24 to 72 hours after the cell monolayer reached confluency.
as §1
Amino-terminal peptide fragments based on the rat PTH sequence and ranging in length from PTH(1–9) to PTH(1–15) were synthesized and tested for activity in an LLC-PK1-derived cell line called HKRK-B7 which stably expresses high levels (1×10^6 receptors/cell) of the cloned human PTH-1 receptor (Takasu, H. and Bringhurst, F., Endocrinology, in press (1998)).

Question: What does the source list for `CCCC[C@H](NC(=O)[C@H](CCCNC(=N)N)NC(=O)[C@H](CCC(=O)O)NC(=O)[C@@H](NC(=O)[C@H](CO)NC(=O)[C@H](C)NC(=O)[C@H](CC(C)C)NC(=O)[C@H](Cc1c[nH]cn1)NC(=O)[C@H](CCCCN)NC(=O)CNC(=O)[C@H](CC(C)C)NC(=O)[C@H](CC(N)=O)NC(=O)[C@H](Cc1c[nH]cn1)NC(=O)[C@H](CCCC)NC(=O)[C@H](CC(C)C)NC(=O)[C@H](CCC(N)=O)NC(=O)[C@@H](NC(=O)[C@H](CCC(=O)O)NC(=O)[C@H](CO)NC(=O)[C@@H](NC(=O)[C@H](C)N)C(C)C)[C@@H](C)CC)C(C)C)C(=O)N[C@@H](CCC(N)=O)C(=O)N[C@@H](Cc1c[nH]c2ccccc12)C(=O)N[C@@H](CC(C)C)C(=O)N[C@@H](CCCNC(=N)N)C(=O)N[C@@H](CCCCN)C(=O)N[C@@H](CCCCN)C(=O)N[C@@H](CC(C)C)C(=O)N[C@@H](CCC(N)=O)C(=O)N[C@@H](CC(=O)O)C(=O)N[C@H](C(=O)N[C@@H](Cc1c[nH]cn1)C(=O)N[C@@H](CC(N)=O)C(=O)N[C@@H](Cc1ccc(O)cc1)C(N)=O)C(C)C` [PTH(1–34), [Nle^8,21,Tyr^34]rPTH-(1–34)NH2]?
Answer: cAMP response of secretin receptor cells (in words) (rat secretin receptor): did not respond; EC50 (human PTH-1 receptor): ~2 nM; increase in intracellular cAMP levels relative to the basal cAMP level (human PTH-1 receptor; HKRK-B7 cells): 50 fold; maximum cAMP response (human PTH-1 receptor; HKRK-B7 cells, mean±s.e.m. of three experiments, basal 2.1±0.1 pmole/well): 254±16 pmole/well

Question: How did the “cAMP response of secretin receptor cells (in words)” value (rat secretin receptor) turn out when “PTH(1–14): Amino-terminal peptide fragment based on the rat PTH sequence, residues 1–14, C-terminally amidated (AVSEIQLMHNLGKH-NH2)” was run?
Answer: did not respond

Question: What about the “doses required for cAMP activation compared with the dose required for PTH(1–34)” value (human PTH-1 receptor; HKRK-B7 cells) of the same compound?
Answer: five to six orders of magnitude higher

Question: What about the “increase in intracellular cAMP levels relative to the basal cAMP level” value (human PTH-1 receptor; HKRK-B7 cells) of the same compound?
Answer: about 20 fold

Question: What about the “potency relative to PTH(1–34) with the intact receptor” value (human PTH-1 receptor; intact receptor) of the same compound?
Answer: about five orders of magnitude weaker
